Results taken from paper PMC10927086, “Effects of structurally distinct human HDAC6 and HDAC6/HDAC8 inhibitors against S. mansoni larval and adult worm stages” (PLOS Neglected Tropical Diseases, 2024).
Values joined by “and” are separate entries in the source; they are usually repeats but may differ in a detail not shown here. Identical values can stand only once. Like-named read-outs stand apart in the source and are kept apart here.

Key:
[1] = system: hHDAC1; details: recombinant enzyme, previously reported; ref [25]; cited from earlier work
[2] = system: adult S. mansoni worm pairs; test: Viability assay on adult worm pairs (phenotype scoring 0-3); format: cell-based, Schistosoma mansoni; details: for viability at 20 µM / viability at 50 µM: Schistosoma mansoni
Method: For studies on adult worm pairs, mice infected 7–8 weeks previously with double sex cercariae were euthanized with intraperitoneal injections of Tiletamine/Zolazepam ([…]) + Xylazine (100 mg/kg) and adult parasites were harvested by reversed perfusion of the hepatic portal system and mesenteric veins. Adult worms were cultured in DMEM containing phenol red and with 4500 mg/l glucose, 2 mM L-glutamine, 100 U/ml penicillin, 100 μg/ml streptomycin, 1x antibiotic-antimycotic reagent, and 10% heat inactivated FBS. Viability assays on adult worm pairs were based on a phenotyping scoring assessment as previously described. Briefly, five adult pairs were incubated with selected compounds in 3 ml of DMEM complete medium. For each compound, three experiments were performed, and compounds were given to parasites only once without medium addition and/or replacement. DMSO (vehicle)-treated worms were used as control samples. Viability was monitored under a Leica Model MZ12 stereomicroscope for 7 days and viability scores (0–3) were assigned. […] For each sample, the total score was determined by the ratio of the sum of worm scores for the total number of worms.
Fig 3 Schistosome viability assays. Panel A: Representative dose-response curves of the inhibitors on NTS. The y-axis indicates the percentage of viability normalized against DMSO (100%) and gambogic acid 10 μM (0%). […] Panel B: dose-response curve of the inhibitors on adult schistosome worm pairs. DMSO (vehicle) was used as negative control (100% viability), the indicated compounds were assayed at 5 (full triangle) 10 (inverted full triangle), 20 (full square) and 50 μM (full circle). Data are expressed as a % severity score (viability) relative to DMSO. Each point represents the average ± standard deviation of three independent experiments.
Parasites were treated initially at 20 μM and 50 μM; their impact on viability was monitored for 7 days upon treatment. […] Viability of each schistosome was scored from 3 (no effect) to 0 (severe effects) by assigning daily worm phenotype scores (plate attachment, movement, color, gut peristalsis, tegument damage) as previously described (Fig 3B).

[3] = design: method as in earlier work; details: QikProp, ref [25], cited from earlier work
[4] = system: hHDAC6; details: recombinant enzyme, previously reported; ref [25]; cited from earlier work
[5] = system: S. mansoni eggs laid by worm pairs; test: Egg counts and egg maturation staging (Vogel and Prata) in vitro; format: cell-based, Schistosoma mansoni; details: for percent of eggs that are viable at the given maturation stage at 20 µM / percent of eggs that are viable at the given maturation stage at 50 µM: Schistosoma mansoni
Text: The eggs produced by worm pairs in vitro were counted at day 3 upon treatment using an inverted Leica DM IL microscope (Leica Microsystems, Wetzlar, Germany). Images were captured with a BX41 Olympus (Olympus, Tokyo, Japan) microscope and a brightfield objective 10× served by an Olympus DP23 microscope digital camera and visualized using “CellSens Entry” software (version 3.1.1). Egg maturation morphological score was assigned based on the Vogel and Prata’s staging system of egg maturation previously reported.
Therefore at 72 h upon worm pairs treatment the eggs were counted and classified by microscopic observation according to the Vogel and Prata staging system of egg maturation and grouped as immature (stages I and II), intermediate/developed (stages III–V), viable or damaged eggs.
Panel B. Histograms represent the percentages of eggs at different maturation stages +/- SEM counted at 72 h after treatment; 5–6 microscopy images of at least 3 independent experiments were analyzed. Filled red triangles indicate viable eggs at stages I–II (immature); empty red triangles indicate damaged/morphological abnormal eggs at stages I–II (immature); filled red arrows indicate viable eggs at stages III–V (intermediate/developed); empty red arrows indicate damaged/morphological abnormal eggs at stages III-V; ef, egg fragments; sp, sperm cells; oc, oocyte. Scale Bars = 200 μm.

[6] = system: hHDAC8; details: recombinant enzyme, previously reported; ref [25]; cited from earlier work
[7] = system: HERG K+ channels; design: method as in earlier work; details: QikProp, log value; recommended below -5; ref [25]; cited from earlier work
[8] = 72 h, NF2839 5 and 10 μM, NF2836 20 and 50 μM

Cn1c(=O)c(OCc2ccc(C(=O)NO)cc2)c(C2CCCCC2)c2ccccc21 [NF2836]
IC50 [1]: 3000 ± 200 nM
% viability of adult worm pairs relative to DMSO, single experiments ([2]; 20 µM, day 1, 20 µM): 100%
% viability of adult worm pairs relative to DMSO, single experiments ([2]; 20 µM, day 3, 20 µM): 100% and 96%
% viability of adult worm pairs relative to DMSO, single experiments ([2]; 20 µM, day 5, 20 µM): 100% and 96%
% viability of adult worm pairs relative to DMSO, single experiments ([2]; 20 µM, day 7, 20 µM): 100%
% viability of adult worm pairs relative to DMSO, single experiments ([2]; 50 µM, day 3, 50 µM): 80% and 60% and 92.59% and 77%
% viability of adult worm pairs relative to DMSO, single experiments ([2]; 50 µM, day 5, 50 µM): 63% and 43% and 42.59% and 67%
viability at 20 µM ([2]; 24 h, 20 µM, day 1, read-out: % viability of adult worm pairs relative to DMSO, Mean): 94.3%
viability at 20 µM ([2]; 24 h, 20 µM, day 1, read-out: % viability of adult worm pairs relative to DMSO, single experiments): 83%
viability at 50 µM ([2]; 24 h, 50 µM, day 1, read-out: % viability of adult worm pairs relative to DMSO, Mean): 62.1%
viability at 20 µM ([2]; 72 h, 20 µM, day 3, read-out: % viability of adult worm pairs relative to DMSO, Mean): 98.7%
viability at 20 µM ([2]; 72 h, 20 µM, day 3, read-out: % viability of adult worm pairs relative to DMSO, single experiments): 100%
viability at 50 µM ([2]; 72 h, 50 µM, day 3, read-out: % viability of adult worm pairs relative to DMSO, Mean): 77.4%
viability at 20 µM ([2]; 120 h, 20 µM, day 5, read-out: % viability of adult worm pairs relative to DMSO, Mean): 98.7%
viability at 20 µM ([2]; 120 h, 20 µM, day 5, read-out: % viability of adult worm pairs relative to DMSO, single experiments): 100%
viability at 50 µM ([2]; 120 h, 50 µM, day 5, read-out: % viability of adult worm pairs relative to DMSO, Mean): 53.9%
viability at 20 µM ([2]; 168 h, 20 µM, day 7, read-out: % viability of adult worm pairs relative to DMSO, Mean): 94.3%
viability at 20 µM ([2]; 168 h, 20 µM, day 7, read-out: % viability of adult worm pairs relative to DMSO, single experiments): 100%
viability at 50 µM ([2]; 168 h, 50 µM, day 7, read-out: % viability of adult worm pairs relative to DMSO, Mean): 53.2%
%HOA predicted human oral absorption ([3]; 0 to 100% scale, >80% high): 87.94%
QPlogS predicted aqueous solubility ([3]; log value, recommended -6.5-0.5): -5.04 mol/dm^3
SASA predicted total solvent accessible surface ([3]; recommended 300-1000, in Å2 (unit assumed)): 684.14
QPlogP predicted octanol/water partition coefficient ([3]; recommended -2-6.5): 3.01
IC50 [4]: 33 ± 2.6 nM
% Stage I/II damaged ([5]; 20 µM, exp.1): 97.1%
%Stage III/IV/V damaged ([5]; 20 µM, exp.1): 0%
Stage I/II damaged counts ([5]; 20 µM, exp.1): 608
Stage I/II viable (egg counts) ([5]; 20 µM, exp.1): 18
Stage II/IV/V viable (egg counts) ([5]; 20 µM, exp.1): 0
Stage III/IV/V damaged (egg counts) ([5]; 20 µM, exp.1): 0
egg counts ([5]; 20 µM, exp.1): 626
% Stage I/II damaged ([5]; 20 µM, exp.2): 16.0%
%Stage III/IV/V damaged ([5]; 20 µM, exp.2): 0%
Stage I/II damaged counts ([5]; 20 µM, exp.2): 76
Stage I/II viable (egg counts) ([5]; 20 µM, exp.2): 378
Stage II/IV/V viable (egg counts) ([5]; 20 µM, exp.2): 19
Stage III/IV/V damaged (egg counts) ([5]; 20 µM, exp.2): 0
% Stage I/II damaged ([5]; 20 µM, exp.3): 79.8%
%Stage III/IV/V damaged ([5]; 20 µM, exp.3): 0%
Stage I/II damaged counts ([5]; 20 µM, exp.3): 408
Stage I/II viable (egg counts) ([5]; 20 µM, exp.3): 103
Stage II/IV/V viable (egg counts) ([5]; 20 µM, exp.3): 0
Stage III/IV/V damaged (egg counts) ([5]; 20 µM, exp.3): 0
egg counts ([5]; 20 µM, exp.3): 511
% Stage I/II damaged, Media ([5]; 20 µM, mean of experiments): 64.3%
%Stage III/IV/V damaged, Media ([5]; 20 µM, mean of experiments): 0%
% Stage I/II damaged ([5]; 50 µM, exp.1): 99.8%
%Stage III/IV/V damaged ([5]; 50 µM, exp.1): 0%
Stage I/II damaged counts ([5]; 50 µM, exp.1): 448
Stage I/II viable (egg counts) ([5]; 50 µM, exp.1): 1
egg counts ([5]; 50 µM, exp.1): 449
% Stage I/II damaged ([5]; 50 µM, exp.2): 92.6%
%Stage III/IV/V damaged ([5]; 50 µM, exp.2): 0%
Stage I/II damaged counts ([5]; 50 µM, exp.2): 287
Stage I/II viable (egg counts) ([5]; 50 µM, exp.2): 23
egg counts ([5]; 50 µM, exp.2): 310
% Stage I/II damaged, Media ([5]; 50 µM, mean of experiments): 96.2%
%Stage III/IV/V damaged, Media ([5]; 50 µM, mean of experiments): 0%
egg damage / viability [5, 8]: eggs appeared seriously damaged and not viable
egg maturation (Vogel and Prata staging) [5, 8]: essentially all eggs were arrested in stage I/II
number of eggs laid by worm pairs [5, 8]: did not observe a decrease in the number of eggs
percent of eggs that are viable at the given maturation stage at 20 µM ([5]; 20 µM, exp.1, read-out: % Stage I/II viable): 2.9%
percent of eggs that are viable at the given maturation stage at 20 µM ([5]; 20 µM, exp.1, read-out: %Stage II/IV/V viable): 0%
percent of eggs that are viable at the given maturation stage at 20 µM ([5]; 20 µM, exp.2, read-out: % Stage I/II viable): 79.6%
percent of eggs that are viable at the given maturation stage at 20 µM ([5]; 20 µM, exp.2, read-out: %Stage II/IV/V viable): 4%
percent of eggs that are viable at the given maturation stage at 20 µM ([5]; 20 µM, exp.3, read-out: % Stage I/II viable): 20.2%
percent of eggs that are viable at the given maturation stage at 20 µM ([5]; 20 µM, exp.3, read-out: %Stage II/IV/V viable): 0%
percent of eggs that are viable at the given maturation stage at 20 µM ([5]; 20 µM, mean of experiments, read-out: % Stage I/II viable, Media): 34.2%
percent of eggs that are viable at the given maturation stage at 20 µM ([5]; 20 µM, mean of experiments, read-out: %Stage II/IV/V viable, Media): 1.3%
percent of eggs that are viable at the given maturation stage at 50 µM ([5]; 50 µM, exp.1, read-out: % Stage I/II viable): 0.223%
percent of eggs that are viable at the given maturation stage at 50 µM ([5]; 50 µM, exp.1, read-out: %Stage II/IV/V viable): 0%
percent of eggs that are viable at the given maturation stage at 50 µM ([5]; 50 µM, exp.2, read-out: % Stage I/II viable): 7.4%
percent of eggs that are viable at the given maturation stage at 50 µM ([5]; 50 µM, exp.2, read-out: %Stage II/IV/V viable): 0%
percent of eggs that are viable at the given maturation stage at 50 µM ([5]; 50 µM, mean of experiments, read-out: % Stage I/II viable, Media): 3.8%
percent of eggs that are viable at the given maturation stage at 50 µM ([5]; 50 µM, mean of experiments, read-out: %Stage II/IV/V viable, Media): 0%
IC50 [6]: 1600 ± 300 nM
QPlogHERG predicted IC50 values for blockage of HERG K+ channels [7]: -5.45
